From patent US7629318B2, “Immunosuppressant compounds, methods and uses related thereto” (priority 2002, dated 2009)
Values joined by “and” are separate entries in the source; they are usually repeats but may differ in a detail not shown here. Equal entries are not always repeated. Numbered stars: 1 amine (or outer) side, 2 acyl side, 3 side chain; on linkers, the order of the positions; unused ones are H or OH. Square brackets hold non-standard residues; d marks the D form. Peptide text beside a SMILES is read from it. ξ: configuration not given here. Gly(1-amidinopiperidin-4-yl) = N=C(N)N1CCC([C@H](N)C(=O)O)CC1; X1 = CC(C)c1oc([C@H](CO)N[*:1])nc1C(=O)[*:2]; Pro(3R-Ph) = O=C(O)[C@H]1NCC[C@@H]1c1ccccc1; Met(O) = CS(=O)CC[C@H](N)C(=O)O; Tic = O=C(O)[C@@H]1Cc2ccccc2CN1; Cha = N[C@@H](CC1CCCCC1)C(=O)O; ξDisc = O=C(O)C1NCc2ccccc21

Columns and labels:
[1] = Stability of compounds in rat blood plasma; format: in vitro ADME
Outline: (§1)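 Compounds at 5 μM final in rat, mouse or human plasma, incubated at 37 °C and sampled at 0, 6 and 24 h. Proteins precipitated with acetonitrile and the supernatant dried and reconstituted in 50% acetonitrile/0.1% TFA. PBS controls run for unstable compounds.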

[2] = biological target: DR1 (DRA1*0101 DRB1*0101) (Homo sapiens, UniProt P01903+P01911, A100R/D57E/F55L/F60I/F76Y/I96L/L162R/M171V/P40L/Q125E/R42F/V115G/Y59C); test: Competitive binding to MHC-II protein DR1; details: Protein binding IC50 (nM) 0101, 0101
Outline: (§2)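 Each MHC-II allele incubated with compound 16 hours at room temperature in duplicate; controls lacked compound, or both compound and MHC-II. Complexes captured 2 h at 4 °C, bound biotinylated peptide detected via europium-streptavidin and DELFIA enhancement, time-resolved fluorescence read at ex 340/em 613 (615) nm.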

[3] = biological target: T1, LG2 (DR1: DRA1*0101 DRB1*0101) cells (Homo sapiens, UniProt P01903+P01911, A100R/D57E/F55L/F60I/F76Y/I96L/L162R/M171V/P40L/Q125E/R42F/V115G/Y59C); test: Competitive binding to MHC II proteins expressed on LG2 cells; format: cell-based; details: Cell binding IC50 (uM) LG2 (0101), LG2 (0101)
T1 construct: MHC II Proteins Expressed on PRIESS and LG2 Cells; endogenous in cells; host or cells: LG2 cells
Experimental: (§3) For use in the binding assay the cells were re-suspended in medium containing 1% FCS at a density of 2.5×10^6 cells/ml.
(§4) The assay was performed in sterile 96 well polystyrene microtiter plates. A 10 fold dilution series of compounds (16 nM-1615 μM) in 1% FCS was prepared from 5 or 10 mM compound stock solutions in 10% DMSO/water. 50 μl of each compound dilution were added in duplicates to 50 μl of a 16 μM solution of indicator peptide in 1% FCS. Cell binding was initiated by adding 100 μl of 2.5×10^6 cells/ml 1% FCS to each well. Controls were included containing the DMSO concentration present in the solution with the highest compound concentration. The cells were incubated at 37° C., 6% CO2. After 4 hours the cells were washed with 200 μl PBS and lysed in 200 μl lysis buffer (50 mM sodium phosphate, 150 mM sodium chloride, 1% (w/v) NP-40, 25 mM iodoacetamide, 1 mM PMSF, 3.1% protease inhibitor cocktail: 0.32 g/l of Chymostatin, Antipain, Pepstatin A, Soybean trypsin inhibitor and Leupeptin each, pH 7.5) for 10 min.
(§5) After washing with PBS, 190 μl of cell lysate were transferred to the appropriate wells of the capture plate and incubated for 2 h at 4° C. The wells were washed six times with 200 μl/well cooled (4 to 8° C.) of 1×DELFIA wash (Wallac-ADL-GmbH, Freiburg), incubated with 100 μl of cooled Europium-streptavidin conjugate (Wallac-ADL-GmbH, Freiburg; diluted 1/1000 with DELFIA assay buffer) for 30 minutes at 4° C., again washed six times with cooled 1×DELFIA wash and, finally, incubated with 200 μl cooled DELFIA enhancement solution (Wallac-ADL-GmbH, Freiburg) for one hour at room temperature before reading the time-resolved europium fluorescence at λex Eu^3+: 340 nm and λem Eu^3+: 613 (615) nm (Wallac Victor^2 1420 Multilabel Counter, Wallac-ADL-GmbH, Freiburg).

[4] = biological target: DR4Dw14 (DRA1*0101 DRB1*0404) (Homo sapiens, UniProt P01903+P01911, A100R/A169T/F76Y/I96L/K127E/L162R/M171V/N62H/P40V/Q125Y/R42H/S133A/S149N/S66Y/V209L/W38E); test: Competitive binding to MHC-II protein DR4Dw14; details: 0404; read-out: Protein binding IC50 (nM) 0404
Outline: as §2

[5] = biological target: T2, Priess (DR4Dw4: DRA1*0101 DRB1*0401) cells (Homo sapiens, UniProt P01903+P01911, A100K/A169T/F76Y/I96L/K127E/L162R/M171V/N62H/P40V/Q125Y/R42H/S133A/S149N/S66Y/V115G/V209L/W38E); test: Competitive binding to MHC II proteins expressed on Priess cells; format: cell-based
T2 construct: MHC II Proteins Expressed on PRIESS and LG2 Cells; endogenous in cells; host or cells: Priess cells
Experimental: as §3, §4, §5

[6] = biological target: DR4Dw4 (DRA1*0101 DRB1*0401) (Homo sapiens, UniProt P01903+P01911, A100K/A169T/F76Y/I96L/K127E/L162R/M171V/N62H/P40V/Q125Y/R42H/S133A/S149N/S66Y/V115G/V209L/W38E); test: Competitive binding to MHC-II protein DR4Dw4
Outline: as §2

[7] = biological target: Cathepsin B1 (EC 3.4.22.1 from bovine spleen) (Bos taurus, UniProt P07688); details: Cathepsin B, 4 h
[8] = Stability of compounds in mouse blood plasma; format: in vitro ADME
Outline: as §1

[9] = Stability of compounds in human blood plasma; format: in vitro ADME
Outline: as §1

[10] = biological target: Cathepsin D (EC 3.4.23.5 from bovine spleen) (Bos taurus, UniProt P80209)
Experimental: The stability of the peptidomimetic compounds towards lysosomal degradation was examined by incubation with Cathepsin B1 (EC 3.4.22.1 from bovine spleen; Sigma-Aldrich, Taufkirchen; dissolved at 10000 U/l in ddH2O) and D (EC 3.4.23.5 from bovine spleen; Sigma-Aldrich, Taufkirchen; dissolved at 10000 U/l in ddH2O) for four hours at 37° C. using a compound concentration of 50 μM and an enzyme/substrate ratio of 0.4 U/μmol. The samples contained 25 ppm 4-isopropyl benzyl alcohol (IPBA; Sigma-Aldrich, Taufkirchen) as internal standard.
Assay buffer was prepared by adding 35 μl of a 1% IPBA in DMSO solution and 28 μl of a 10000 U/l Cathepsin B1 or Cathepsin D stock solution to 14 ml of 100 mM sodium acetate, 1 mM EDTA, 1 mM DTT, pH 5.00 or 100 mM sodium acetate, pH 4.50, respectively. 8.8 μl of a 5 mM (or 4.4 μl of a 10 mM) compound stock solution (in 10% DMSO/water) were placed into a 1.5 ml Eppendorf tube. The reaction was started by adding 875 μl fully supplemented assay buffer to each tube, whirlmixing and incubation at 37° C. At 0 and 4 hours 400 μl samples were taken and the enzyme was inactivated by addition of 40 μl […] TFA aq. The samples were kept frozen at −20° C. until analysis by RP-HPLC (200 μl injection volume; Nucleosil 100-5 C18, 12.5×4.6 cm; Gradient: 20-50% acetonitrile in 30 min).
Compounds co-eluting with the internal standard during RP-HPLC analysis were tested without the standard as Example 16.

[11] = test system: T-cell proliferation, DR14-LN

## CC(=O)N[C@@H](CC1CCCCC1)C(=O)N[C@@H](CCCNC(=N)N)C(=O)N1Cc2ccccc2C[C@H]1C(=O)N[C@@H](CC[S+](C)[O-])C(=O)N1CC[C@H](c2ccccc2)[C@H]1C(=O)N[C@@H](CO)c1nc(C(=O)N(C)C)c(C(C)C)o1 (stereo partly drawn) [Compound P43, Ac-Cha-Arg-Tic-Met(O)-βPhPro-[S(oxaz)L]-NMe2] (Ac-[Cha]R[Tic][Met(O)][Pro(3R-Ph)][X1]-NMe2)
[1]
  Stability (Arbitrary units) Rat 6 h: 96 Arbitrary units
  Stability (Arbitrary units) Rat 24 h: 71 Arbitrary units
[2]
  IC50: 380 nM
[3]
  IC50: 13 µM
[4]
  IC50: 1700 nM
[5]
  IC50: 3.1 µM
[6]
  IC50: 0.32 µM
[7]
  Stability (Arbitrary units) Cath B 4 h: 96 Arbitrary units
[8]
  Stability (Arbitrary units) Mouse 6 h: 96 Arbitrary units
  Stability (Arbitrary units) Mouse 24 h: 82 Arbitrary units
[9]
  Stability (Arbitrary units) Human 6 h: 134 Arbitrary units
  Stability (Arbitrary units) Human 24 h: 131 Arbitrary units
[10]
  Stability (Arbitrary units) Cath D 4 h: 101 Arbitrary units

## CSCC[C@H](NC(=O)[C@@H]1Cc2ccccc2CN1C(=O)[C@@H](NC(=O)[C@H](CC1CCCCC1)NC(C)=O)C1CCN(C(=N)N)CC1)C(=O)N1CC[C@H](c2ccccc2)[C@H]1C(N)=O [Compound P80, Ac-Cha-Gpg-Tic-Met-βPhProNH2] (Ac-[Cha][Gly(1-amidinopiperidin-4-yl)][Tic]M[Pro(3R-Ph)]-NH2)
[1]
  Stability (Arbitrary units) Rat 6 h: 102 Arbitrary units
  Stability (Arbitrary units) Rat 24 h: 39 Arbitrary units
[2]
  IC50: 550 nM
[3]
  IC50: 2.7 µM
[4]
  IC50: 470 nM
[5]
  IC50: 2.7 µM
[6]
  IC50: 0.67 µM
[11]; maximal inhibition
  Immunsupressive assays DR14-LN (Max) % Inhibition: 88%
[11]; read-out: Immunsupressive assays DR14-LN (IC50)
  IC50: 94 µM
[7]
  Stability (Arbitrary units) Cath B 4 h: 90 Arbitrary units
[8]
  Stability (Arbitrary units) Mouse 6 h: 106 Arbitrary units
  Stability (Arbitrary units) Mouse 24 h: 123 Arbitrary units
[9]
  Stability (Arbitrary units) Human 6 h: 139 Arbitrary units
  Stability (Arbitrary units) Human 24 h: 134 Arbitrary units
[10]
  Stability (Arbitrary units) Cath D 4 h: 84 Arbitrary units

## CSCC[C@H](NC(=O)[C@@H]1Cc2ccccc2CN1C(=O)[C@@H](NC(=O)[C@H](CC1CCCCC1)NC(C)=O)C1CCN(C(=N)N)CC1)C(N)=O [Compound P67, Ac-Cha-Gpg-Tic-Met-NH2] (Ac-[Cha][Gly(1-amidinopiperidin-4-yl)][Tic]M-NH2)
[1]
  Stability (Arbitrary units) Rat 6 h: 10 Arbitrary units
  Stability (Arbitrary units) Rat 24 h: 34 Arbitrary units
[2]
  IC50: 120 nM
[3]
  IC50: 4.5 µM
[4]
  IC50: 1060 nM and 1080 nM
[5]
  IC50: 4.5 µM
[6]
  IC50: 0.41 µM
[7]
  Stability (Arbitrary units) Cath B 4 h: 58 Arbitrary units
[8]
  Stability (Arbitrary units) Mouse 6 h: 71 Arbitrary units
  Stability (Arbitrary units) Mouse 24 h: 16 Arbitrary units
[9]
  Stability (Arbitrary units) Human 6 h: 97 Arbitrary units
  Stability (Arbitrary units) Human 24 h: 100 Arbitrary units
[10]
  Stability (Arbitrary units) Cath D 4 h: 113 Arbitrary units

## CSCC[C@H](NC(=O)C1c2ccccc2CN1C(=O)[C@H](CCCNC(=N)N)NC(=O)[C@H](CC1CCCCC1)NC(C)=O)C(=O)N1CC[C@H](c2ccccc2)[C@H]1C(=O)N[C@@H](CO)c1nc(C(=O)N(C)C)c(C(C)C)o1 (stereo partly drawn) [Compound P40-1, Ac-Cha-Arg-Disc-Met-βPhPro-[S(oxaz)L]NMe2] (Ac-[Cha]R[ξDisc]M[Pro(3R-Ph)][X1]-NMe2)
[1]
  Stability (Arbitrary units) Rat 6 h: 111 Arbitrary units
  Stability (Arbitrary units) Rat 24 h: 71 Arbitrary units
[2]
  IC50: 140 nM
[3]
  IC50: 8 µM
[4]
  IC50: 98 nM
[5]
  IC50: 3 µM
[6]
  IC50: 0.27 µM
[7]
  Stability (Arbitrary units) Cath B 4 h: 99 Arbitrary units
[9]
  Stability (Arbitrary units) Human 6 h: 108 Arbitrary units
  Stability (Arbitrary units) Human 24 h: 103 Arbitrary units
[10]
  Stability (Arbitrary units) Cath D 4 h: 93 Arbitrary units
